Reference: patent US9469659B2, “Compositions and methods for improving glucose uptake” (Board of Supervisors of Louisiana State University and …, priority 2012, dated 2016)

How the values were obtained:
3T3-L1 cells = assay: Glucose uptake under basal and insulin stimulated conditions (FIG. 2); assay type: cell-based; conditions: 24 hours exposure
Experimental: Next, glucose uptake by 3T3-L1 cells exposed to compounds 1-5 was determined at 5 μM concentration. Cells were exposed to compounds 1-5 for 24 hours and exposure to DMSO was used as the control group. 2-Deoxy glucose (2-DG) uptake was determined using the analog compounds without serum starving the cells prior to determining glucose uptake. As indicated in FIG. 1 glucose uptake in 3T3-L1 pre-adipocytes was determined by exposing cells to compounds 1-5 for 24 hours without serum starvation. All compounds show significant increase (p<0.05) in glucose uptake under basal conditions compared with the DMSO treated control cells. To confirm these observations glucose uptake was examined under basal and insulin stimulated conditions with cells exposed to compounds 1-5 for 24 hours.

3T3-L1 pre adipocytes = assay: Cell toxicity of compounds at various doses; assay type: cell-based
Experimental: For the following screens, compounds 1-5 were dissolved in DMSO. 3T3-L1 pre adipocytes were first exposed to different concentrations (5 μM, 10 μM, 20 μM, 50 μM and 100 μM) of the compounds to test for toxicity compared with DMSO control exposure. Exposure to other concentrations was followed until Day 5. Compound 2 was the most toxic at 20 μM on Day 5.

[1] = 5 μM, Day 1, 3T3-L1 pre adipocytes
[2] = 5 μM, Day 2, 3T3-L1 pre adipocytes
[3] = 5 μM, Day 3, 3T3-L1 pre adipocytes
[4] = 5 μM, Day 4, 3T3-L1 pre adipocytes
[5] = 5 μM, Day 5, 3T3-L1 pre adipocytes
[6] = 10 μM, Day 1, 3T3-L1 pre adipocytes
[7] = 10 μM, Day 2, 3T3-L1 pre adipocytes
[8] = 10 μM, Day 3, 3T3-L1 pre adipocytes
[9] = 10 μM, Day 4, 3T3-L1 pre adipocytes
[10] = 10 μM, Day 5, 3T3-L1 pre adipocytes
[11] = 20 μM, Day 1, 3T3-L1 pre adipocytes
[12] = 20 μM, Day 2, 3T3-L1 pre adipocytes
[13] = 20 μM, Day 3, 3T3-L1 pre adipocytes
[14] = 20 μM, Day 4, 3T3-L1 pre adipocytes
[15] = 20 μM, Day 5, 3T3-L1 pre adipocytes
[16] = 50 μM, Day 1, 3T3-L1 pre adipocytes
[17] = 50 μM, Day 2, 3T3-L1 pre adipocytes
[18] = 100 μM, Day 1, 3T3-L1 pre adipocytes
[19] = 100 μM, Day 2, 3T3-L1 pre adipocytes

Structure (SMILES) | Glucose uptake under basal and insulin stimulated conditions (3T3-L1 cells) | Cell toxicity (3T3-L1 pre adipocytes; [1]) [%] | Cell toxicity (3T3-L1 pre adipocytes; [2]) | Cell toxicity (3T3-L1 pre adipocytes; [3]) | Cell toxicity (3T3-L1 pre adipocytes; [4]) | Cell toxicity (3T3-L1 pre adipocytes; [5]) | Cell toxicity (3T3-L1 pre adipocytes; [6]) | Cell toxicity (3T3-L1 pre adipocytes; [7]) | Cell toxicity (3T3-L1 pre adipocytes; [8]) | Cell toxicity (3T3-L1 pre adipocytes; [9]) | Cell toxicity (3T3-L1 pre adipocytes; [10]) | Cell toxicity (3T3-L1 pre adipocytes; [11]) | Cell toxicity (3T3-L1 pre adipocytes; [12]) | Cell toxicity (3T3-L1 pre adipocytes; [13]) | Cell toxicity (3T3-L1 pre adipocytes; [14]) | Cell toxicity (3T3-L1 pre adipocytes; [15]) | Cell toxicity (3T3-L1 pre adipocytes; [16]) | Cell toxicity (3T3-L1 pre adipocytes; [17]) | Cell toxicity (3T3-L1 pre adipocytes; [18]) | Cell toxicity (3T3-L1 pre adipocytes; [19]) | further results
Cc1cc(C(C#N)Nc2ccc(B3OC(C)(C)C(C)(C)O3)cc2)no1 (stereo not drawn) [Compound 3] | most significant increase | 0 | 0-5% | 0-5% | 0-5% | 0-5% | 0-5% | >5% | ≧10% | ≧10% | ≧10% | 5-10% | 15-20% | >20% | 20-30% | ≧30% | 15-20% | 90-95% | 60-70% | 95-100% | –
N#CC(Nc1ccc([B-](F)(F)F)cc1)c1ccco1 (stereo not drawn) [Compound 5] | most significant increase | 0 | 0-5% | 0-5% | 0-5% | 0-5% | 0-5% | >5% | ≧10% | ≧10% | ≧10% | 5-10% | 10-15% | 10-15% | 10-15% | 10-15% | >15% | 90-95% | >90% | 95-100% | –
CC1(C)OB(c2ccc(NC(C#N)c3cc(-c4ccccc4)on3)cc2)OC1(C)C (stereo not drawn) [Compound 2] | – | 0 | 0-5% | 0-5% | 10-20% | 10-20% | 5-10% | >10% | ≧10% | 30-40% | ≧40% | >10% | 20-30% | 40-50% | 60-70% | 70-80% | 30-40% | 95-100% | >90% | 95-100% | Toxicity (in words, ranking among compounds) (3T3-L1 pre adipocytes; [15]): most toxic
CC1(C)OB(c2ccc(NC(C#N)c3cc(-c4ccc(F)cc4)on3)cc2)OC1(C)C (stereo not drawn) [Compound 1] | – | 0 | 0-5% | 0-5% | 0-5% | ≧5% | 5-10% | 5-10% | 5-10% | 5-10% | 5-10% | 5-10% | ≧10% | ≧10% | 10-15% | 10-15% | 30-40% | 90-95% | >90% | 95-100% | –
N#CC(Nc1ccc([B-](F)(F)F)cc1)c1cc(-c2ccc(F)cc2)on1 (stereo not drawn) [Compound 4] | most significant increase | 0 | 0-5% | 0-5% | 0-5% | 0-5% | 0-5% | >5% | ≧10% | ≧10% | ≧10% | 5-10% | 10-15% | ≧15% | ≧15% | ≧15% | 30-40% | 90-95% | >90% | 95-100% | –
